The text below walks through data of ChEMBL document CHEMBL1136053, “Development of new hydrogen-bond descriptors and their application to comparative molecular field analyses” (J Med Chem, 2002).

Non-standard residues stand in square brackets, D forms with d. Residues, ends and D or L forms follow the SMILES beside them. ξ: configuration not given here. *: point of attachment. ξF = NC(Cc1ccccc1)C(=O)O; Cbz = O=C(OCc1ccccc1)*; NHOH = ON*

In this test the target is T1, Thermolysin (Bacillus thermoproteolyticus, UniProt P00800).
T1 sequence (P00800 whole entry): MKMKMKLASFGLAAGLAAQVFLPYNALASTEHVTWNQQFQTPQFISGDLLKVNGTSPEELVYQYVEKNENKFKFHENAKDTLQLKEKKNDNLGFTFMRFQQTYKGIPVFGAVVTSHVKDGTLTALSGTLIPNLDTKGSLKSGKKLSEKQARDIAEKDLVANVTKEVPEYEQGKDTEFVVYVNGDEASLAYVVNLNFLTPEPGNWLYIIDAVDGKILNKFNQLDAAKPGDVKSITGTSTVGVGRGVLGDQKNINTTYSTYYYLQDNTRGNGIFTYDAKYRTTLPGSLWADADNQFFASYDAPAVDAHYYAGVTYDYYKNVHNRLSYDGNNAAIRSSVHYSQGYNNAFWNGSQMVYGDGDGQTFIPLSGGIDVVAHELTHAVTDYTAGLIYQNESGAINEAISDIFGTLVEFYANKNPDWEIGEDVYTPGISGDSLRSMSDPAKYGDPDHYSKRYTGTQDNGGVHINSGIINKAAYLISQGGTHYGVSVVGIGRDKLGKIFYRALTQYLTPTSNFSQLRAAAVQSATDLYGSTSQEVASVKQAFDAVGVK
The experiment in a line: pKi value expresses binding affinity against thermolysin pKi = -logKi (where Ki is in mol/L).
Consider `CC(=O)CC(=O)N[C@@H](Cc1ccccc1)C(=O)N[C@@H](C)C(=O)NCC(N)=O`, for which the Ki (in general, a measure of affinity in units of concentration, obtained from inhibition or displacement) is 3090 µM.
Take `CC(C)C[C@H](NC(=O)OCc1ccccc1)C(=O)NCC(N)=O` (Cbz-Leu-Gly-NH2): the Ki was 3090 µM.
On to `CC(C)CC(NC(CCNC(=O)C(C)NC(=O)OCc1ccccc1)C(=O)O)C(=O)NC(Cc1ccccc1)C(=O)O` (configuration not stated), for which the Ki is 0.851 µM.
For `CC(C)CC(NP(=O)(O)CNC(=O)OCc1ccccc1)C(=O)NC(C)C(=O)O` (configuration not stated), the Ki is 0.0166 µM.
Turning to `C[C@H](NC(=O)[C@H](Cc1ccccc1)NS(=O)(=O)O)C(=O)NCC(N)=O`, the Ki was 4270 µM.
`CC(C)C[C@H](NC(=O)CNC(=O)CNC(=O)OCc1ccccc1)C(=O)NO` showed an inhibition constant (Ki) of 38.9 µM.
Still for that read-out and setting: the figure for `CC(C)CC(OP(=O)(O)[C@@H](Cc1ccccc1)NC(=O)OCc1ccccc1)C(=O)NC(C)C(=O)O` (some centres not stated) is 30.2 µM; for `C[C@H](NC(=O)[C@H](Cc1ccccc1)C(=O)O)C(=O)NCC(N)=O` it is 417 µM; for `CC(C)CC(NC(=O)C(CC(C)C)NP(=O)(O)CNC(=O)OCc1ccccc1)C(=O)O` (configuration not stated) it is 0.00912 µM.
For `CC(C)CC(CP(=O)(O)CNC(=O)OCc1ccccc1)C(=O)NC(Cc1ccccc1)C(=O)O` (configuration not stated), the Ki was 0.0661 µM.
Same read-out and setting: in the case of `O=C(NC(Cc1ccccc1)C(=O)O)OCc1ccccc1` (configuration not stated) it was 513 µM.
Compound `O=C(O)CC(=O)NC(CS)Cc1ccccc1` (configuration not stated) had a Ki of 2.29 µM.
In turn, `CC(C)CC(NC(CCNC(=O)C(Cc1ccccc1)NC(=O)OCc1ccccc1)C(=O)O)C(=O)NC(Cc1c[nH]c2ccccc12)C(=O)O` (configuration not stated) had an inhibition constant Ki of 0.011 µM.
The same measure, in the same setting: in the case of `CC(C)CC(N)C(=O)NO` (configuration not stated) it was 191 µM; in that of `CC(C)CC(OP(=O)(O)C(CC(C)C)NC(=O)OCc1ccccc1)C(=O)NC(C)C(=O)O` (configuration not stated), 0.676 µM; in that of `C[C@H](NC(=O)[C@H](Cc1ccccc1)NC(=O)CO)C(=O)NCC(N)=O`, 2880 µM.
On the same count and under the same terms, in the case of `CC(C)CC(NP(=O)(O)OC1OC(C)C(O)C(O)C1O)C(=O)NC(Cc1c[nH]c2ccccc12)C(=O)O` (configuration not stated) it was 0.0282 µM.
Same read-out and setting: in the case of `O=C(O)C(Cc1ccccc1)NP(=O)(O)O` (configuration not stated) it was 72.4 µM; in that of `C[C@H](NC(=O)[C@@H](CS)Cc1ccccc1)C(=O)NCC(N)=O`, 0.759 µM; in that of `C[C@H](C(=O)NO)C(=O)N[C@@H](C)C(=O)NCC(N)=O`, 1100 µM.
The compound `CC(NC(=O)C(Cc1ccccc1)NP(=O)(O)O)C(=O)NCC(N)=O` (configuration not stated) had a Ki of 2.57 µM.
Regarding `C[C@H](NC(=O)[C@H](Cc1ccccc1)C(=O)NO)C(=O)NCC(=O)O`, the Ki was 0.661 µM.
In the case of `NC(=O)CNC(=O)C(Cc1ccc(O)cc1)NC(=O)OCc1ccccc1` (configuration not stated), the Ki was 219 µM.
On the same count and under the same terms, the figure for `CC(C)CC(OP(=O)(O)CNC(=O)OCc1ccccc1)C(=O)NC(Cc1ccccc1)C(=O)O` (configuration not stated) is 53.7 µM.
`CC(C)CC(NP(=O)(O)C(Cc1ccccc1)NC(=O)OCc1ccccc1)C(=O)NC(C)C(=O)O` (configuration not stated) gave a Ki of 6.76e-05 µM.
Consider `CC(C)C[C@H](NC(=O)CNC(=O)OCc1ccccc1)C(N)=O`, for which the Ki is 20900 µM.
For the compound `CC(C)C[C@@H](NC(=O)CNC(=O)CNC(=O)OCc1ccccc1)C(=O)NO`, the pKi (in general, the negative decadic logarithm of the Ki, by convention in mol/L) came to 3.6.
The compound `CC(C)CC(NP(=O)(O)CNC(=O)OCc1ccccc1)C(=O)NC(Cc1ccccc1)C(=O)O` (configuration not stated) showed a Ki of 0.0759 µM.
As to `C[C@H](NC(=O)[C@H](C)NP(=O)(O)O)C(=O)O`, the Ki is 87.1 µM.
For `CC(C)CC(NC(CCNC(=O)C(Cc1ccccc1)NC(=O)OCc1ccccc1)C(=O)O)C(=O)NC(Cc1ccccc1)C(=O)O` (configuration not stated), the Ki was 0.219 µM.
In turn, `CC(C)CC(NC(CCc1cccc(CN)c1)C(=O)O)C(=O)NC(Cc1ccccc1)C(=O)O` (configuration not stated) gave a Ki of 1.7 µM.
In turn, `CC(C)CC(NC(=O)CNC(=O)OCc1ccccc1)C(=O)N(C)O` (configuration not stated) gave a Ki of 2240 µM.
The same measure, in the same setting: the figure for `CC(C)CC(OP(=O)(O)CNC(=O)OCc1ccccc1)C(=O)NC(C)C(=O)O` (configuration not stated) is 12.9 µM.
`CC(C)CC(NC(C)C(=O)O)C(=O)NC(Cc1ccccc1)C(=O)O` (configuration not stated): the Ki was 2.82 µM.
`CC(C)CC(NP(=O)(O)O)C(=O)NC(Cc1ccccc1)C(=O)O` (configuration not stated) gave a Ki of 0.0191 µM.
Still for that read-out and setting: in the case of `CC(C)CC(CP(=O)(O)CNC(=O)OCc1ccccc1)C(=O)NC(CC(C)C)C(=O)O` (configuration not stated) it was 0.182 µM; in that of `CC(C)CC(CP(=O)(O)CNC(=O)OCc1ccccc1)C(=O)NC(C)C(=O)O` (configuration not stated), 0.0186 µM; in that of `CC(C)C[C@H](NC(CCc1ccccc1)C(=O)O)C(=O)N[C@@H](Cc1c[nH]c2ccccc12)C(=O)O` (some centres not stated), 0.0339 µM.
As to `CCCCCCP(=O)(O)NC(CC(C)C)C(=O)NC(Cc1c[nH]c2ccccc12)C(=O)NC` (configuration not stated), the Ki was 0.00151 µM.
On to `CC(=O)N(O)[C@@H](CC(C)C)C(=O)N[C@@H](C)C(=O)NCC(N)=O`, for which the affinity corresponds to a Ki of 3390 µM.
`CCCCC(NC(CC(C)C)C(=O)NC(Cc1ccccc1)C(=O)O)C(=O)O` (configuration not stated) gave a Ki of 3800 µM.
Compound `CC(C)CC(OP(=O)(O)CNC(=O)OCc1ccccc1)C(N)=O` (configuration not stated) gave a Ki of 661 µM.
For `O=C(CCc1ccccc1)NC(Cc1ccccc1)C(=O)O` (configuration not stated), the affinity corresponds to a Ki of 1620 µM.
Still for that read-out and setting: in the case of `CC(C)CC(OP(=O)(O)C(Cc1ccccc1)NC(=O)OCc1ccccc1)C(=O)NC(C)C(=O)O` (configuration not stated) it was 0.0447 µM.
For `CCCCCCP(=O)(O)CC(CC(C)C)C(=O)NC(Cc1c[nH]c2ccccc12)C(=O)NC` (configuration not stated), the Ki was 0.0525 µM.
As for `CC(C)CC(NC(=O)NNC(=O)OCc1ccccc1)C(=O)NO` (configuration not stated), the Ki is 2.69 µM.
Still for that read-out and setting: the figure for `CC(C)CC(OP(=O)(O)C(C)NC(=O)OCc1ccccc1)C(=O)NC(C)C(=O)O` (configuration not stated) is 1.82 µM.
Compound `CC(C)CC(OP(=O)(O)[C@@H](C)NC(=O)OCc1ccccc1)C(=O)NC(C)C(=O)O` (some centres not stated) had a Ki of 24 µM.
Take `CC(C)C[C@@H](NC(=O)CNC(=O)OCc1ccccc1)C(=O)NO`: the affinity, expressed as Ki, was 47.9 µM.
For the compound `CC(NC(=O)C(Cc1ccccc1)C(=O)NO)C(=O)NCC(=O)Nc1ccc([N+](=O)[O-])cc1` (configuration not stated), the affinity, expressed as Ki, was 0.427 µM.
`CC(C)C[C@@H](C(=O)N[C@@H](C)C(=O)NCC(N)=O)N(O)C=O` gave a Ki of 3390 µM.
The compound `CC(C)C[C@H](C(=O)NO)C(=O)N[C@@H](C)C(=O)NCC(N)=O` had a Ki of 0.479 µM.
The compound `CC(C)CC(CP(=O)(O)CNC(=O)OCc1ccccc1)C(=O)NCC(=O)O` (configuration not stated) had a Ki of 0.302 µM.
As for `O=C(CNC(=O)CNC(=O)OCc1ccccc1)NO` (Cbz-Gly-Gly-{NHOH}), the Ki is 933 µM.
On the same count and under the same terms, the figure for `CC(C)CC(NP(=O)(O)[C@@H](Cc1ccccc1)NC(=O)OCc1ccccc1)C(=O)NC(C)C(=O)O` (some centres not stated) is 0.479 µM; for `CC(C)CC(CP(=O)(O)CNC(=O)OCc1ccccc1)C(N)=O` (configuration not stated) it is 1.41 µM.
`CCCCCCP(=O)(O)OC(CC(C)C)C(=O)NC(Cc1c[nH]c2ccccc12)C(=O)NC` (configuration not stated): the affinity corresponds to a Ki of 1.45 µM.
`CC(C)CC(OP(=O)(O)[C@@H](CC(C)C)NC(=O)OCc1ccccc1)C(=O)NC(C)C(=O)O` (some centres not stated): the Ki was 41.7 µM.
`CC(C)CC(NP(=O)(O)O)C(N)=O` (configuration not stated) showed a Ki of 79.4 µM.
As to `CC(C)C[C@H](NC(=O)CNC(=O)OCc1ccccc1)C(=O)NO`, the Ki was 12.9 µM.
Compound `CC(C)CC(NP(=O)(O)CNC(=O)OCc1ccccc1)C(N)=O` (configuration not stated) showed an inhibition constant (Ki) of 0.759 µM.
The same measure, in the same setting: the figure for `CC(C)CC(NP(=O)(O)CNC(=O)OCc1ccccc1)C(=O)NCC(=O)O` (configuration not stated) is 0.269 µM.
As to `CC(C)CC(NC(CCNC(=O)CNC(=O)OCc1ccccc1)C(=O)O)C(=O)NC(Cc1ccccc1)C(=O)O` (configuration not stated), the affinity, expressed as Ki, was 0.407 µM.
On the same count and under the same terms, in the case of `CC(C)CC(NC(CCc1ccccc1)C(=O)O)C(=O)NC(Cc1ccccc1)C(=O)O` (configuration not stated) it was 0.603 µM; in that of `CC(C)CC(NC(=O)C(CC(C)C)OP(=O)(O)CNC(=O)OCc1ccccc1)C(=O)O` (configuration not stated), 8.91 µM.
As to `CCOC(=O)C(Cc1ccccc1)C(=O)NO` (configuration not stated), the affinity corresponds to a Ki of 20 µM.
The same measure, in the same setting: in the case of `C[C@H](NC(=O)[C@H](Cc1ccccc1)NP(=O)(O)S)C(=O)NCC(N)=O` (some centres not stated) it was 6.92 µM; in that of `CC(C)CC(NC(=O)NNC(=O)OCc1ccccc1)C(N)=O` (configuration not stated), 380 µM; in that of `CC[C@H](C)[C@H](NP(=O)(O)O)C(=O)N[C@@H](C)C(=O)O`, 0.363 µM.
On the same count and under the same terms, in the case of `CC(C)CC(OP(=O)(O)CNC(=O)OCc1ccccc1)C(=O)NCC(=O)O` (configuration not stated) it was 229 µM; in that of `C[C@H](NC(=O)[C@H](Cc1ccccc1)C(=O)NO)C(=O)NCC(N)=O`, 0.661 µM; in that of `NC(=O)CNC(=O)C(Cc1ccccc1)NC(=O)OCc1ccccc1` (configuration not stated) (Cbz-[ξF]-Gly-NH2), 347 µM.
